In US20230089073A1 (Carmot Therapeutics, Inc., priority 2021, published 2023):

What follows are compounds tested against T1, human GLP-1 receptor (Homo sapiens, UniProt P43220) (assay: GLP-1R cAMP Assay). Conditions: cAMP accumulation in CHO cells stably overexpressing the human GLP-1 receptor; 30 min treatment; HitHunter cAMP kit; read-out: EC50.
T1 construct: expressed in transfected cells
T1 sequence (P43220 24-463): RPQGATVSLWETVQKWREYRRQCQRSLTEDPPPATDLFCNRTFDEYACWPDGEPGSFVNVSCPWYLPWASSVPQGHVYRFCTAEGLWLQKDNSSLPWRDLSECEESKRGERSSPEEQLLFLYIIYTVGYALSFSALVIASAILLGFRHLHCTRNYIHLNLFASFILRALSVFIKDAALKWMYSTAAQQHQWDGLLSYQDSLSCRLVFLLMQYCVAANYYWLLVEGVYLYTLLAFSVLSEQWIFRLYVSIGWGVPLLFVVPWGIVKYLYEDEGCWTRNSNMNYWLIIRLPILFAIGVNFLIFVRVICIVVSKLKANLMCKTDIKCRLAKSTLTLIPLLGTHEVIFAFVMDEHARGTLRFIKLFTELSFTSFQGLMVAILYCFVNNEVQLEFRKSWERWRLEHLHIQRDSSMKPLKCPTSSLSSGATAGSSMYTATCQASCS
Type: cell-based
Method in brief: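 CHO cells stably overexpressing human GLP-1R, 10,000 cells/well, treated with compound in 20-point dose response in triplicate for 30 min. cAMP accumulation read by enzyme-complementation luminescence after lysis and overnight incubation; dose-response curves fitted.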
For `O=C(O)c1ccc2nc(CN3CCC(Oc4cccc(COc5ccc(Cl)cc5F)c4)CC3)n(C[C@@H]3CCO3)c2c1` [Compound 221, 2-[(4-{3-[(4-chloro-2-fluorophenoxy)methyl]phenoxy}piperidin-1-yl)methyl]-1-{[(2S)-oxetan-2-yl]methyl}-1H-1,3-benzodiazole-6-carboxylic acid], the EC50 was under 50 nM.
Work on `COCCC1(Cn2c(CN3CCC(Oc4ccnc(COc5ccc(Cl)cc5F)c4)CC3)nc3ccc(C(=O)O)cc32)CC1` [Compound 354] yielded an EC50 of under 50 nM.
Compound `CCn1cncc1Cn1c(CN2CCN(C(=O)c3cccc(N(C)c4ccc(C)cc4Cl)c3)CC2)nc2ccc(C(=O)O)cc21` [Compound 54, 2-[(4-{3-[(2-chloro-4-methylphenyl)(methyl)amino]benzoyl}piperazin-1-yl)methyl]-1-[(1-ethyl-1H-imidazol-5-yl)methyl]-1H-1,3-benzodiazole-6-carboxylic acid] has an EC50 of 50 to 500 nM.
`Cc1ccccc1OCc1ccc(C(=O)N2CCN(Cc3nc4ccc(C(=O)O)cc4n3C[C@@H]3CCO3)CC2)o1` [Compound 43, 2-[(4-{5-[(2-methylphenoxy)methyl]furan-2-carbonyl}piperazin-1-yl)methyl]-1-{[(2S)-oxetan-2-yl]methyl}-1H-1,3-benzodiazole-6-carboxylic acid] was tested, and the EC50 was over 500 nM.
`Cc1ccc(Nc2cccc(C(=O)N3CCN(Cc4nc5ccc(C(=O)O)cc5n4C[C@@H]4CCO4)CC3)c2)cc1` [Compound 25, 2-[(4-{3-[(4-methylphenyl)amino]benzoyl}piperazin-1-yl)methyl]-1-{[(2S)-oxetan-2-yl]methyl}-1H-1,3-benzodiazole-6-carboxylic acid] showed an EC50 of over 500 nM.
With `Cc1ccc(Nc2cccc(C(=O)N3CCN(Cc4nc5ccc(C(=O)O)cc5n4C[C@@H]4CCO4)CC3)c2)c(Cl)c1` [Compound 50, 2-[(4-{3-[(2-chloro-4-methylphenyl)amino]benzoyl}piperazin-1-yl)methyl]-1-{[(2S)-oxetan-2-yl]methyl}-1H-1,3-benzodiazole-6-carboxylic acid] the EC50 was over 500 nM.
`CCn1cncc1Cn1c(CN2CCC(Oc3cccc(COc4ccc(Cl)cc4Cl)n3)CC2)nc2ccc(C(=O)O)cc21` [Compound 199, 2-{[4-({6-[(2,4-dichlorophenoxy)methyl]pyridin-2-yl}oxy)piperidin-1-yl]methyl}-1-[(1-ethyl-1H-imidazol-5-yl)methyl]-1H-1,3-benzodiazole-6-carboxylic acid] showed an EC50 of under 50 nM.
In the case of `O=C(O)c1cc(F)c2nc(CN3CCC(Oc4ccnc(COc5ccc(C(F)F)cc5F)c4)CC3)n(C[C@@H]3CCO3)c2c1` [Compound 302], the EC50 is reported as under 50 nM.
For `CCn1cnnc1Cn1c(CN2CCC(Oc3ccnc(COc4ccc(Cl)cc4F)c3)CC2)nc2ccc(C(=O)O)cc21` [Compound 316], the EC50 was under 50 nM.
With `N#Cc1ccc(OCc2nccc(O[C@H]3C[C@H]4C[C@@H]3CN4Cc3nc4ccc(C(=O)O)cc4n3C[C@@H]3CCO3)n2)c(F)c1` [Compound 507, 2-{[(1R,4R,5S)-5-({2-[(4-cyano-2-fluorophenoxy)methyl]pyrimidin-4-yl}oxy)-2-azabicyclo[2.2.1]heptan-2-yl]methyl}-1-{[(2S)-oxetan-2-yl]methyl}-1H-1,3-benzodiazole-6-carboxylic acid] the EC50 was under 50 nM.
`CCn1cncc1Cn1c(CN2CCN(C(=O)c3cccc(N(C)c4ccc(C)cc4)c3)CC2)nc2ccc(C(=O)O)cc21` [Example 46, 1-((1-Ethyl-1H-imidazol-5-yl)methyl)-2-((4-(3-(methyl(p-tolyl)amino)benzoyl)piperazin-1-yl)methyl)-1H-benzo[d]imidazole-6-carboxylic acid] showed an EC50 of 50 to 500 nM.
Compound `CCn1cncc1Cn1c(CN2CCC([C@H](F)c3cccc(COc4ccc(Cl)cc4Cl)c3)CC2)nc2ccc(C(=O)O)cc21` (single isomer, unassigned) [Compound 202] has an EC50 of under 50 nM.
In the case of `O=C(O)c1ccc2nc(CN3CCC(Oc4ccnc(COc5ccc(Cl)cc5Cl)n4)CC3)n(C[C@@H]3CCO3)c2c1` [Example 304, (S)-2-((4-((2-((2,4-Dichlorophenoxy)methyl)pyrimidin-4-yl)oxy)piperidin-1-yl)methyl)-1-(oxetan-2-ylmethyl)-1H-benzo[d]imidazole-6-carboxylic acid], the EC50 is reported as under 50 nM.
`C[C@H]1C[C@@H](Oc2ccnc(COc3cc(F)c(F)cc3F)n2)CCN1Cc1nc2ccc(C(=O)O)cc2n1C[C@@H]1CCO1` [Compound 514, 2-{[(2S,4S)-2-methyl-4-({2-[(2,4,5-trifluorophenoxy)methyl]pyrimidin-4-yl}oxy)piperidin-1-yl]methyl}-1-{[(2S)-oxetan-2-yl]methyl}-1H-1,3-benzodiazole-6-carboxylic acid] was tested, and the EC50 was under 50 nM.
With `N#CCC1(Cn2c(CN3CCC(Oc4ccnc(COc5ccc(F)cc5C#N)n4)CC3)nc3c(F)cc(C(=O)O)cc32)CC1` [Compound 349] the EC50 was under 50 nM.
Compound `N#Cc1cc(Cl)ccc1OCc1cccc(OC2CCN(Cc3nc4ccc(C(=O)O)cc4n3C[C@@H]3CCO3)CC2)n1` [Compound 248, 2-{[4-({6-[(4-chloro-2-cyanophenoxy)methyl]pyridin-2-yl}oxy)piperidin-1-yl]methyl}-1-{[(2S)-oxetan-2-yl]methyl}-1H-1,3-benzodiazole-6-carboxylic acid] has an EC50 of 50 to 500 nM.
Work on `O=C(O)c1ccc2nc(CN3CCN(C(=O)c4cccc(Oc5ccc(F)cc5)c4)CC3)n(C[C@@H]3CCO3)c2c1` [Compound 13, 2-({4-[3-(4-fluorophenoxy)benzoyl]piperazin-1-yl}methyl)-1-{[(2S)-oxetan-2-yl]methyl}-1H-1,3-benzodiazole-6-carboxylic acid] yielded an EC50 of over 500 nM.
With `O=C(O)c1ccc2nc(CN3CCC(Oc4cccc(OCc5ccc(F)cc5Cl)c4)CC3)n(C[C@@H]3CCO3)c2c1` [Compound 207] the EC50 was under 50 nM.
With `O=C(O)c1ccc2nc(CN3CCC(Oc4ccnc(COc5cc(F)c(F)cc5F)n4)CC3)n(C[C@@H]3CCO3)c2c1` [Compound 495, 1-{[(2S)-oxetan-2-yl]methyl}-2-{[4-({2-[(2,4,5-trifluorophenoxy)methyl]pyrimidin-4-yl}oxy)piperidin-1-yl]methyl}-1H-1,3-benzodiazole-6-carboxylic acid] the EC50 was under 50 nM.
`CN(c1cccc(C(=O)N2CCN(Cc3nc4ccc(C(=O)O)cc4n3C[C@@H]3CCO3)CC2)c1)c1ccc(C2CC2)cc1Cl` [Compound 122, 2-[(4-{3-[(2-chloro-4-cyclopropylphenyl)(methyl)amino]benzoyl}piperazin-1-yl)methyl]-1-{[(2S)-oxetan-2-yl]methyl}-1H-1,3-benzodiazole-6-carboxylic acid] showed an EC50 of under 50 nM.
With `O=C(O)c1ccc2nc(CN3CCC(Oc4cccc(COc5cc(Cl)cc(Cl)c5)c4)CC3)n(C[C@@H]3CCO3)c2c1` [Compound 242, 2-[(4-{3-[(3,5-dichlorophenoxy)methyl]phenoxy}piperidin-1-yl)methyl]-1-{[(2S)-oxetan-2-yl]methyl}-1H-1,3-benzodiazole-6-carboxylic acid] the EC50 was under 50 nM.
`O=C(O)c1ccc2nc(CN3CCN(C(=O)c4ccc(COc5ccccc5)o4)CC3)n(C[C@@H]3CCO3)c2c1` [Compound 30, 1-{[(2S)-oxetan-2-yl]methyl}-2-({4-[5-(phenoxymethyl)furan-2-carbonyl]piperazin-1-yl}methyl)-1H-1,3-benzodiazole-6-carboxylic acid] was tested, and the EC50 was over 500 nM.
For `C[C@H]1C[C@@H](Oc2cccc(COc3ccc(C#N)cc3F)c2)CCN1Cc1nc2c(F)cc(C(=O)O)cc2n1C[C@@H]1CCO1` [Compound 320], the EC50 was under 50 nM.
